In data set [1] the test system is recombinant NL4-3 virus (Renilla luciferase) in MT-2 cells. As to the kind of experiment: HIV cell culture assay (antiviral activity, luciferase readout). The class given is cell-based. Conditions: Renilla, NL43. The method, boiled down: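 Antiviral EC50 was derived via the median effect equation from luciferase signal. The signal came from MT-2 cultures infected for 4–5 days with a nef-deleted, Renilla luciferase-expressing NL4-3 reporter virus (made in 293T cells) in the presence of compound dilutions.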

Data set [2] can be described thus: Compound cytotoxicity, XTT-based colorimetric assay. Conditions: human; uninfected MT2 cells, day 4, XTT. The class given is cell-based. The method, boiled down: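 Run under the antiviral-assay protocol but without virus. Viability was read on day 4 and CC50 values were derived from the readout.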
On the technique in general: Tetrazolium dyes change colour on reduction, which living cells bring about.

pEC50: −log10 of the molar value. A value given as a limit tells only on which side of the number the result lay.

The term pEC50 denotes −log10 of the EC50, conventionally taken in molar units. What is called CC50 is the concentration that lowers cell viability or growth by half. Low values mean harm at low concentration, high ones better tolerance by the cells.

As to `Cc1nc(C)c(F)c(-c2ccc3c(=O)n(-c4ccc(Cl)c5c(NS(C)(=O)=O)nn(C)c45)c([C@H](Cc4cc(F)cc(F)c4)NC(=O)Cn4nc(C(F)F)c5c4C(F)(F)[C@@H]4C[C@H]54)nc3c2)n1` (atropisomer, axis not shown) [Example 119, N-[(1S)-1-[3-(4-chloro-3-methanesulfonamido-1-methyl-1H-indazol-7-yl)-7-(5-fluoro-2,6-dimethylpyrimidin-4-yl)-4-oxo-3,4-dihydroquinazolin-2-yl]-2-(3,5-difluorophenyl)ethyl]-2-[(2S,4R)-9-(difluoromethyl)-5,5-difluoro-7,8-diazatricyclo[4.3.0.0^2,^4]nona-1(6),8-dien-7-yl]acetamide], the pEC50 in data set [1] is 10.06. Further, in data set [2], the CC50 at 4 days was > 500 nM.
Regarding `Cn1nc(NS(C)(=O)=O)c2c(Cl)ccc(-n3c([C@H](Cc4cc(F)cc(F)c4)NC(=O)Cn4nc(C(F)F)c5c4C(F)(F)[C@@H]4C[C@H]54)nc4cc(-c5ccnc(C(C)(C)C)n5)ccc4c3=O)c21` (atropisomer, axis not shown; (P)) [Example 72, N—((S)-1-(7-(2-(tert-butyl)pyrimidin-4-yl)-(3P)-3-(4-chloro-1-methyl-3-(methylsulfonamido)-1H-indazol-7-yl)-4-oxo-3,4-dihydroquinazolin-2-yl)-2-(3,5-difluorophenyl)ethyl)-2-((3bS,4aR)-3-(difluoromethyl)-5,5-difluoro-3b,4,4a,5-tetrahydro-1H-cyclopropa[3,4]cyclopenta[1,2-c]pyrazol-1-yl)acetamide], the pEC50 in data set [1] is 9.37. Also, in data set [2], the 50% cytotoxic concentration (CC50) at 4 days was > 500 nM.
Consider `CN(c1ccccc1-c1ccc2c(=O)n(-c3ccc(Cl)c4c(NS(C)(=O)=O)nn(C)c34)c([C@H](Cc3cc(F)cc(F)c3)NC(=O)Cn3nc(C(F)F)c4c3C(F)(F)[C@@H]3C[C@H]43)nc2c1)S(C)(=O)=O` (atropisomer, axis not shown; (P)) [Example 27, N—((S)-1-((3P)-3-(4-chloro-1-methyl-3-(methylsulfonamido)-1H-indazol-7-yl)-7-(2-(N-methylmethylsulfonamido)phenyl)-4-oxo-3,4-dihydroquinazolin-2-yl)-2-(3,5-difluorophenyl)ethyl)-2-((3bS,4aR)-3-(difluoromethyl)-5,5-difluoro-3b,4,4a,5-tetrahydro-1H-cyclopropa[3,4]cyclopenta[1,2-c]pyrazol-1-yl)acetamide], for which the pEC50 in data set [1] was 9.31. Also, in data set [2], the cytotoxic concentration (CC50) at 4 days is > 500 nM.
As for `Cn1nc(NS(C)(=O)=O)c2c(Cl)ccc(-n3c([C@H](Cc4cc(F)cc(F)c4)NC(=O)Cn4nc(C(F)F)c5c4C(F)(F)[C@@H]4C[C@H]54)nc4cc(-c5nccc(C(C)(C)C)n5)ccc4c3=O)c21` (atropisomer, axis not shown; (P)) [Example 47, N—((S)-1-(7-(4-(tert-butyl)pyrimidin-2-yl)-(3P)-3-(4-chloro-1-methyl-3-(methylsulfonamido)-1H-indazol-7-yl)-4-oxo-3,4-dihydroquinazolin-2-yl)-2-(3,5-difluorophenyl)ethyl)-2-((3bS,4aR)-3-(difluoromethyl)-5,5-difluoro-3b,4,4a,5-tetrahydro-1H-cyclopropa[3,4]cyclopenta[1,2-c]pyrazol-1-yl)acetamide], the pEC50 in data set [1] was 9.72. Also, the CC50 at 4 days in data set [2] was > 500 nM.
The like results for `Cc1cc(-c2ccc3c(=O)n(-c4ccc(Cl)c5c(NS(=O)(=O)C6CC6)nn(CC(F)F)c45)c([C@H](Cc4cc(F)cc(F)c4)NC(=O)Cn4nc(C(F)F)c5c4C(F)(F)[C@@H]4C[C@H]54)nc3c2)nc(C)n1` (atropisomer, axis not shown; (P)) [Example 85, N—((S)-1-((3P)-3-(4-chloro-3-(cyclopropanesulfonamido)-1-(2,2-difluoroethyl)-1H-indazol-7-yl)-7-(2,6-dimethylpyrimidin-4-yl)-4-oxo-3,4-dihydroquinazolin-2-yl)-2-(3,5-difluorophenyl)ethyl)-2-((3bS,4aR)-3-(difluoromethyl)-5,5-difluoro-3b,4,4a,5-tetrahydro-1H-cyclopropa[3,4]cyclopenta[1,2-c]pyrazol-1-yl)acetamide] were, in that order, 10.06 and > 500 nM.
In the case of `COc1ccc(-c2ccc3c(=O)n(-c4ccc(Cl)c5c(NS(C)(=O)=O)nn(C)c45)c([C@H](Cc4cc(F)cc(F)c4)NC(=O)Cn4nc(C(F)F)c5c4C(F)(F)[C@@H]4C[C@H]54)nc3c2)c(C)n1` (atropisomer, axis not shown; (P)) [Example 5, N—((S)-1-((3P)-3-(4-chloro-1-methyl-3-(methylsulfonamido)-1H-indazol-7-yl)-7-(6-methoxy-2-methylpyridin-3-yl)-4-oxo-3,4-dihydroquinazolin-2-yl)-2-(3,5-difluorophenyl)ethyl)-2-((3bS,4aR)-3-(difluoromethyl)-5,5-difluoro-3b,4,4a,5-tetrahydro-1H-cyclopropa[3,4]cyclopenta[1,2-c]pyrazol-1-yl)acetamide], the pEC50 in data set [1] is 9.03. For the same molecule, the CC50 at 4 days in data set [2] is > 500 nM.
Take `Cn1nc(NS(C)(=O)=O)c2c(Cl)ccc(-n3c([C@H](Cc4cc(F)cc(F)c4)NC(=O)Cn4nc(C(F)F)c5c4C(F)(F)[C@@H]4C[C@H]54)nc4cc(-c5ccnc(C6CCC6)n5)ccc4c3=O)c21` (atropisomer, axis not shown; (P)) [Example 76, N—((S)-1-((3P)-3-(4-chloro-1-methyl-3-(methylsulfonamido)-1H-indazol-7-yl)-7-(2-cyclobutylpyrimidin-4-yl)-4-oxo-3,4-dihydroquinazolin-2-yl)-2-(3,5-difluorophenyl)ethyl)-2-((3bS,4aR)-3-(difluoromethyl)-5,5-difluoro-3b,4,4a,5-tetrahydro-1H-cyclopropa[3,4]cyclopenta[1,2-c]pyrazol-1-yl)acetamide]: the pEC50 in data set [1] was 9.74. Besides, in data set [2], the CC50 at 4 days was > 500 nM.
On the same counts, the results for `Cc1cc(C)nc(-c2ccc3c(=O)n(-c4ccc(Cl)c5c(NS(C)(=O)=O)nn(C)c45)c([C@H](Cc4cc(F)cc(F)c4)NC(=O)Cn4nc(C(F)F)c5c4C(F)(F)[C@@H]4C[C@H]54)nc3c2)c1` (atropisomer, axis not shown; (P)) [Example 1, N—((S)-1-((3P)-3-(4-chloro-1-methyl-3-(methylsulfonamido)-1H-indazol-7-yl)-7-(4,6-dimethylpyridin-2-yl)-4-oxo-3,4-dihydroquinazolin-2-yl)-2-(3,5-difluorophenyl)ethyl)-2-((3bS,4aR)-3-(difluoromethyl)-5,5-difluoro-3b,4,4a,5-tetrahydro-1H-cyclopropa[3,4]cyclopenta[1,2-c]pyrazol-1-yl)acetamide] are 9.82 and > 500 nM.
Take `CS(=O)(=O)c1cccnc1-c1ccc2c(=O)n(-c3ccc(Cl)c4c(NS(=O)(=O)C5CC5)nn(CC(F)F)c34)c([C@H](Cc3cc(F)cc(F)c3)NC(=O)Cn3nc(C(F)F)c4c3C(F)(F)[C@@H]3C[C@H]43)nc2c1` (atropisomer, axis not shown; (P)) [Example 95, N—((S)-1-((3P)-3-(4-chloro-3-(cyclopropanesulfonamido)-1-(2,2-difluoroethyl)-1H-indazol-7-yl)-7-(3-(methylsulfonyl)pyridin-2-yl)-4-oxo-3,4-dihydroquinazolin-2-yl)-2-(3,5-difluorophenyl)ethyl)-2-((3bS,4aR)-3-(difluoromethyl)-5,5-difluoro-3b,4,4a,5-tetrahydro-1H-cyclopropa[3,4]cyclopenta[1,2-c]pyrazol-1-yl)acetamide]: in data set [1], the pEC50 was 10.28. Further, the CC50 at 4 days in data set [2] was > 500 nM.
As for `CCc1ccnc(-c2ccc3c(=O)n(-c4ccc(Cl)c5c(NS(=O)(=O)C6CC6)nn(CC(F)F)c45)c([C@H](Cc4cc(F)cc(F)c4)NC(=O)Cn4nc(C(F)F)c5c4C(F)(F)[C@@H]4C[C@H]54)nc3c2)n1` (atropisomer, axis not shown; (P)) [Example 93, N—((S)-1-((3P)-3-(4-chloro-3-(cyclopropanesulfonamido)-1-(2,2-difluoroethyl)-1H-indazol-7-yl)-7-(4-ethylpyrimidin-2-yl)-4-oxo-3,4-dihydroquinazolin-2-yl)-2-(3,5-difluorophenyl)ethyl)-2-((3bS,4aR)-3-(difluoromethyl)-5,5-difluoro-3b,4,4a,5-tetrahydro-1H-cyclopropa[3,4]cyclopenta[1,2-c]pyrazol-1-yl)acetamide], in data set [1], the pEC50 is 9.74. Moreover, in data set [2], the CC50 at 4 days was > 500 nM.
The like results for `Cn1nc(NS(C)(=O)=O)c2c(Cl)ccc(-n3c([C@H](Cc4cc(F)cc(F)c4)NC(=O)Cn4nc(C(F)F)c5c4C(F)(F)[C@@H]4C[C@H]54)nc4cc(-c5cccc(C(C)(C)C)n5)ccc4c3=O)c21` (atropisomer, axis not shown; (P)) [Example 35, N—((S)-1-(7-(6-(tert-butyl)pyridin-2-yl)-(3P)-3-(4-chloro-1-methyl-3-(methylsulfonamido)-1H-indazol-7-yl)-4-oxo-3,4-dihydroquinazolin-2-yl)-2-(3,5-difluorophenyl)ethyl)-2-((3bS,4aR)-3-(difluoromethyl)-5,5-difluoro-3b,4,4a,5-tetrahydro-1H-cyclopropa[3,4]cyclopenta[1,2-c]pyrazol-1-yl)acetamide] were, in that order, 9.01 and > 500 nM.
In the case of `CC(C)(C)S(=O)(=O)c1cccc(-c2ccc3c(=O)n(-c4ccc(Cl)c5c(NS(C)(=O)=O)nn(CC(F)F)c45)c([C@H](Cc4cc(F)cc(F)c4)NC(=O)Cn4nc(C(F)F)c5c4C(F)(F)[C@@H]4C[C@H]54)nc3c2)c1` (atropisomer, axis not shown) [Example 127], in data set [1], the pEC50 is 9.85. The CC50 at 4 days in data set [2] was > 500 nM.
On the same counts, the results for `Cn1nc(NS(C)(=O)=O)c2c(Cl)ccc(-n3c([C@H](Cc4cc(F)cc(F)c4)NC(=O)Cn4nc(C(F)F)c5c4C(F)(F)[C@@H]4C[C@H]54)nc4cc(-c5cccc(C(F)F)c5)ccc4c3=O)c21` (atropisomer, axis not shown) [Example 120] are 9.42 and > 500 nM.

Values taken from patent US11541055B2, “Inhibitors of human immunodeficiency virus replication” (ViiV Healthcare UK (No. 5) LIMITED, priority 2018, dated 2023).
